# Experimental data: patent US7504489B2, “Inhibitors of ADP-ribosyl transferases, cyclases, and hydrolases, and uses thereof” (Albert Einstein College of Medicine of Yeshiva University, priority 2001, dated 2009)
# Several values for one entry are separate records, joined by “and”; a condition that tells them apart may be missing. Identical values can stand only once.
# Experiments:
# CD38 [1] = target: T1, CD38 (Homo sapiens, UniProt P28907); experiment: Radiochemical measurement of reaction rates (covalent labelling of CD38 by [2′-3H] inhibitor, gel filtration); assay type: binding; conditions: for kon (radioactivity, radiolabeled inhibitor bound versus time): [2′-3H]βNdR 9 μM, CD38 1.2 μM, gel filtration
# T1 sequence (P28907 45-300): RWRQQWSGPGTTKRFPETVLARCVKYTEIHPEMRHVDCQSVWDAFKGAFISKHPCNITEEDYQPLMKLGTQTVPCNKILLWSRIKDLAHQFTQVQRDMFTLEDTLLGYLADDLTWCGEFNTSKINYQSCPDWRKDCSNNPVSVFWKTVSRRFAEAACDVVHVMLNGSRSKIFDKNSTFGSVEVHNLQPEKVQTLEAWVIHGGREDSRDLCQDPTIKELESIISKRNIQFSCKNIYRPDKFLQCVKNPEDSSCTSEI
# Procedure: [2′-^3H]β-1′-nicotinamide-2′-deoxyribose ([2′-^3H]βNdR) was used to measure the covalent interaction of inhibitor with CD38 as follows: 9 μM inhibitor with specific activity of 1233 cpm/nmol was incubated with 1.2 μM CD38 in a volume of 1 ml of 50 mM potassium phosphate (pH 7.5). The reactions were started by enzyme addition, and quenched by freezing in a dry ice/acetone bath after 30, 60, 90, 120, 250, 500, and 1000 sec. Samples were placed on 1 ml gel filtration columns (0° C.) that were used to separate protein from free inhibitor. Columns were cooled on ice, and eluted with cold (0° C.) 10 mM potassium phosphate (pH 7.5) as eluant. Fractions (1 ml) were combined with 9 ml of scintillation fluid, and counted for radioactivity. A sample lacking enzyme, but having the same incubations, was performed as a blank control. A sample using the α-[2′-^3H]nicotinamide-2′-deoxyribose of equal concentration and specific activity, and having the same incubations, was performed as a second control. The observed cpm in the protein peak (fractions 3+4) was fitted to the equation A(t)=A0(1−exp(−kt))+B, where A(t) is the cpm in protein at time t, A0 is the cpm at reaction completion, k is the observed pseudo-first-order rate constant, B is the activity of the blank, and t is the time in seconds.
# The covalent interaction of [2′-^3H]β-1′-pyridyl-2′-deoxyribose with CD38 was measured as follows: 25 mM inhibitor with specific activity of 1233 cpm/nmol was incubated with 25.2 μM CD38 in a volume of 50 μl of 50 mM Tricine (pH 7.5). The reactions were started by enzyme addition, and quenched by freezing in a dry ice/acetone bath after 2 h, 7200 s. Samples were placed on (0° C.) 1-ml gel filtration columns (P-10) that were used to separate protein from free inhibitor. Columns were cooled on ice, and eluted with cold (0° C.) 10 mM potassium phosphate (pH 7.5) as eluant. Fractions (1 ml) were combined with 9 ml of scintillation fluid, and counted for radioactivity. A sample lacking enzyme, but undergoing the same incubations, was performed as a blank control. A sample using the α-[2′-^3H]nicotinamide-2′-deoxyribose of equal concentration and specific activity, and the same incubations, was used as a second control. The observed cpm in the protein peak (fractions 3+4) were fitted to the equation A(t)=A0(1−exp(−kt))+B, where A(t) is the cpm in protein at time t, A0 is the cpm at reaction completion, k is the observed pseudo-first-order rate constant, B is the activity of the blank, and t is the time in s.
# CD38 [2] = target: T1, CD38; experiment: Determination of Ki and kchem by competitive method (NGD+ substrate, absorbance at 295 nm); assay type: biochemical
# Procedure: CD38 was used to start reactions containing 1-ml solutions of 50 mM potassium phosphate, 100 μM NGD, and 50, 25, 12.5, 6.25, and 0 μM βNdR. Reactions were initiated with 2 μl of 7 μM CD38, and reaction progress was monitored by measurement of absorbance at 295 nm. The initial slopes were used to determine the Ki value. The time course of absorbance for each sample was fitted to the equation A(t)=vt+(b−v)(1−exp(−kt))/k+A0, where k is the observed rate constant, b is the initial rate, v is the final rate, and A0 is the initial absorbance. The rate constant kchem (FIG. 3) was determined as reported (19).
# This mechanism of inhibition was tested by treatment of CD38 with different concentrations of inhibitor in the presence of 50 Km of substrate to establish values for Ki and kchem. In the presence of 100 μM NGD^+, reaction mixtures containing 0 to 50 μM βNdR were initiated by addition of enzyme (FIG. 8).
# CD38 [3] = target: T1, CD38; experiment: CD38 activity and inhibition measurements (time-dependent inactivation, NGD+ to cGDPR, absorbance at 295 nm); assay type: biochemical; conditions: for residual enzymatic activity, % of the control: 10 min after treatment of enzyme (500 nM) with excess inhibitor (10 μM), 10 min, 10 µM
# Procedure: […] Aliquots of the reaction were assayed by placing 5 μl of the reaction mixture into 1 ml of 50 mM HEPES (pH 7.5) containing 100 μM NGD^+, at 30, 60, 90, 120, 180, or 300 sec. The conversion of NGD^+ to cGDPR was monitored by determining absorbance at 295 nm. A reaction mixture lacking inhibitor was used as a control. Activity was determined as a function of time, and fitted to the equation A(t)=[…]^-kt, where A0 is activity at time zero (control), t is time in seconds, and k is the observed pseudo-first-order rate constant. Human CD38 (200 nM) was incubated with β-1'-pyridyl-2'-deoxyribose (25 mM) in a volume of 100 μl of 50 mM Tricine (pH 7.5). Aliquots of the reaction (5 μl) were assayed by placing into 1 ml of 50 mM HEPES (pH 7.5) containing 100 μM NGD^+ at 750, 1500, 2250, 3000, 4000, 8000, and 14400 s. The conversion of NGD^+ to cGDPR was monitored by absorbance at 295 nm. A reaction mixture lacking inhibitor was used as a control. Activity was determined as a function of time, and fitted to the equation A(t)=C+[…]^-kt, where A0 is activity at time zero (control), t is time in s, k is the observed pseudo-first-order rate constant, and C represents uninhibited activity at equilibrium.
# CD38 [4] = target: T1, CD38; experiment: Determination of Ki and kchem by competitive method (NGD+ substrate, absorbance at 295 nm); assay type: biochemical; remark: listed apart in the source
# CD38 [5] = target: T2, CD38 (Homo sapiens, UniProt P28907); conditions: 37° C.; cited from earlier work
# T2 sequence (P28907 1-300): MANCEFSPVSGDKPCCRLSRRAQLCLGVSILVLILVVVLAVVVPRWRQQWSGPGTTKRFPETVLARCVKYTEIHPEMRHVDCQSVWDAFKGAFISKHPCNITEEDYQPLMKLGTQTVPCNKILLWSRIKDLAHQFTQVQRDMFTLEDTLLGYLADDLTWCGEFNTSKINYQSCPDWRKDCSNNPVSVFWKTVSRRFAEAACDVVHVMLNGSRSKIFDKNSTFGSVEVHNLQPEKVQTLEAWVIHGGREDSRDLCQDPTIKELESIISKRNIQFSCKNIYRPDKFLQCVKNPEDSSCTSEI
# CD38 [6] = target: T1, CD38; experiment: Off-rate measurement (recovery of CD38 catalytic activity after inactivation); assay type: biochemical
# Procedure: Recovery of CD38 catalytic activity after inactivation with β-1′-nicotinamide-2′-deoxyribose was measured in reaction mixtures containing 500 nM CD38, 50 mM inhibitor, and 15 μM deoxyriboside. After timed intervals, 5 μl of the reaction mixture were added to a 1-ml reaction of 50 mM HEPES (pH 7.5) containing 300 μM NGD^+. A control was also prepared without the inhibitor. Production of cGDPR was determined by monitoring absorbance at 295 nm. The absorbance was fitted to the equation A(t)=vt+(b−v)(1−exp(−kofft))/koff+A0 (19), where koff is the observed rate constant, b is the initial rate, v is the final rate, and A0 is the initial absorbance. Recovery of CD38 catalytic activity after inhibition by βNdR was measured by adding inactivated CD38 to solutions of NGD^+, and monitoring absorbance change at 295 nm for periods of 3-4 h. The recovery process was slow: full catalytic activity was not restored over this time period. However, the measured rate constant for recovery could be measured by regressive fit of the data to the activity recovery equation, A(t)=vt+(b−v)(1−exp(−kofft))/koff+A0, where koff is the observed rate constant, b is the initial rate, v is the final rate, and A0 is the initial absorbance. […] The proposed mechanism of recovery operates through the hydrolytic path (FIG. 4).
# [7] = listed as β-1′-nicotinamide-2′-deoxyribose
compound,measurement,setting,value
5′-phospho-1′-β-pyridyl-2′-deoxyribose [5′-phospho-1′-pyridyl-deoxyribose],covalent attachment of the sugar moiety to the enzyme,"CD38 [1]; [2′-3H] labelled inhibitor, gel-filtration",confirmed covalent attachment
same,Ki,"CD38 [2]; 5′-phospho derivative, similar studies, read-out: Ki",> 200 µM
same,effect of extended incubation on CD38,CD38 [3]; 200 μM inhibitor,inhibited the enzyme
same,minimum value for kchem,"CD38 [3]; 200 μM inhibitor, extended incubations, activity versus time",≥ 0.00022 s⁻¹
"OC[C@H]1O[C@@H]([n+]2ccccc2)C[C@@H]1O [β-pyridyl-deoxyribose, β-1′-pyridyl-2′-deoxyribose]",Ki,"CD38 [2]; calculated value, read-out: Kieff (koffKi/kchem)",323 µM
same,Kieff relative to Kieff for βNdR,CD38 [2]; times larger,10^5 times
same,extent of inhibition achieved,"CD38 [3]; 25 mM inhibitor, limited by long onset times and inhibitor decomposition",60-80%
same,"rate of covalent inactivation, equivalent to kchem","CD38 [3]; saturating concentration (25 mM), absence of NGD+",0.00017 s⁻¹
same,Ki,"CD38 [4]; 50 μM to 50 mM inhibitor, 5 μM (3 Km) NGD+, read-out: Ki for CD38 inhibition",11000 µM
"NC(=O)c1ccc[n+]([C@@H]2O[C@H](COP(=O)([O-])OP(=O)(O)OC[C@H]3O[C@@H](n4cnc5c(=O)[nH]c(N)nc54)[C@H](O)[C@@H]3O)[C@@H](O)[C@H]2O)c1 [NGD^+, Nicotinamide guanine dinucleotide, reference compound]",Km,CD38 [4]; CD38 substrate,2 µM
NC(=O)c1ccc[n+]([C@@H]2O[C@H](COP(=O)(O)O)[C@@H](O)[C@H]2O)c1 [NMN^+],kcat for hydrolysis (hydrolysis of the covalent intermediate),CD38 [5],512 s⁻¹
"NC(=O)c1ccc[n+]([C@H]2C[C@H](O)[C@@H](CO)O2)c1 [βNdR, β-1′-nicotinamide-2′-deoxyribose]","kon (radioactivity, radiolabeled inhibitor bound versus time)",CD38 [1],1540 M⁻¹ s⁻¹
same,"kon (radioactivity, radiolabeled inhibitor bound versus time)",CD38 [1]; [7],1500 M⁻¹ s⁻¹
same,Ki,"CD38 [1]; kon from radioactivity, read-out: Kieff = koff/kon (Radioactivity, koff)",0.0033 µM
same,Ki,CD38 [1]; read-out: Kieff = koff/kon (kon from radioactivity),0.0032 µM
same,"koff, rate constant for recovery (activity recovery, hydrolysis)","CD38 [6]; inactivated CD38 added to NGD+, 3-4 h, no nicotinamide",5e-06 s⁻¹
same,rate of CD38-deoxyribose hydrolysis relative to CD38 ribose 5-phosphate,CD38 [6]; ratio of hydrolysis rates of covalent intermediates,10^−8
same,"kchem, rate constant for chemical reaction (competitive onset)","CD38 [2]; 100 μM NGD+, 0 to 50 μM inhibitor, listed as β-1′-nicotinamide-2′-deoxyribose",0.0126 s⁻¹
same,Ki,"CD38 [2]; 100 μM NGD+, 0 to 50 μM inhibitor, listed as β-1′-nicotinamide-2′-deoxyribose, read-out: Ki (competitive, initial slopes)",2.5 µM
same,Ki,"CD38 [2]; 100 μM NGD+, 0 to 50 μM inhibitor, read-out: Ki (competitive, initial slopes)",1 µM
same,Ki,"CD38 [2]; average of the three Kieff values, read-out: Kieff (Average of values)",0.0029 µM
same,Ki,"CD38 [2]; listed as β-D-1′-nicotinamide-2′-deoxyribofuranoside, read-out: Kieff, effective inhibition constant (average)",0.0029 µM
same,Ki,CD38 [2]; read-out: Kieff = Kikoff/kchem,0.0004 µM
same,Ki,"CD38 [2]; read-out: Kieff, effective inhibition constant (average)",0.0029 µM and 0.002 µM
same,"residual enzymatic activity, % of the control",CD38 [3],less than 5%
same,"residual enzymatic activity, % of the control",CD38 [3]; [7],< 5%
same,Ki,"CD38 [3]; kon from activity decay, read-out: Kieff = koff/kon (Activity, koff)",0.0051 µM
same,Ki,CD38 [3]; read-out: Kieff = koff/kon (kon from activity decay),0.005 µM
